The results in this text go back to patent US7122523B2, “Methods for inhibiting tumor cell proliferation” (University of Southern California, priority 2001, dated 2006).

A short description of the experiment: Test of effectiveness of AII fragments (test not specified). The note with it: repeated tests.

Entries after “also recorded” stand apart in the source; their conditions may differ.

For Tyr-Ile-His-Pro-Phe (YIHPF) [AII(4-8)], the “effectiveness as active agent” value is “not to be effective; also recorded: ineffective”.
